Measured values taken from patent publication US20230061736A1, “GPR119 AGONISTS” (Kallyope, Inc., priority 2019, published 2023).

Biological target: T1, human GPR119 (hGPR119) (Homo sapiens, UniProt Q8TDV5)
T1 construct: expressed in transfected cells
T1 sequence (Q8TDV5 1-335): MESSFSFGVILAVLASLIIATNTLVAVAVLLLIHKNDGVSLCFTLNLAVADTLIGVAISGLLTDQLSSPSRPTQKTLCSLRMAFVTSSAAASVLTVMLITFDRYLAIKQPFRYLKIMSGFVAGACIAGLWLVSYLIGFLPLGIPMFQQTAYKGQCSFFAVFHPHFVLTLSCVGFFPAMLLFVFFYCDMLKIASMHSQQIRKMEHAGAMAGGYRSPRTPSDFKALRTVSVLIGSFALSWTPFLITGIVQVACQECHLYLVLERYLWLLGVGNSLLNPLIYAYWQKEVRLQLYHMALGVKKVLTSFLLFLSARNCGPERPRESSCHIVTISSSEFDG
Assay: cAMP accumulation assay (cAMP Gs dynamic HTRF kit)
Type: cell-based
Conditions: CHO-K1 cells stably expressing hGPR119, 4-parameter fit; for Emax: 1 h, % activity normalized to Max/Min controls; for EC50: cAMP accumulation
Method in brief: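 CHO-K1 cells stably expressing hGPR119, used as assay-ready frozen stocks at ~10,000 cells/well, exposed to compound dose-response in stimulation buffer with Tween 80 for 60 min at 37° C. cAMP read by HTRF (665/620 nm ratio), normalised to Max/Min controls; EC50 and Max activity from 4-parameter fit.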

SMILES	Emax	EC50
O=C(Cc1c(F)cc(OCCC2CC3(CCN(c4ncc(Cl)cn4)CC3)C2)cc1F)N1CC(CNC[C@H](O)[C@@H](O)[C@H](O)[C@H](O)CO)C1 [Example 115, 2-[4-[2-[7-(5-chloropyrimidin-2-yl)-7-azaspiro[3.5]nonan-2-yl]ethoxy]-2,6-difluoro-phenyl]-1-[3-[[[(2S,3R,4R,5R)-2,3,4,5,6-pentahydroxyhexyl]amino]methyl]azetidin-1-yl]ethanone]	100 to 130%	100 to 1000 nM
O=C(Cc1c(F)cc(OCCCC2CC3(CCN(c4ncc(Cl)cn4)CC3)C2)cc1F)N1CC(CNC[C@H](O)[C@@H](O)[C@H](O)[C@H](O)CO)C1 [Example 116, 2-[4-[3-[7-(5-chloropyrimidin-2-yl)-7-azaspiro[3.5]nonan-2-yl]propoxy]-2,6-difluoro-phenyl]-1-[3-[[[(2S,3R,4R,5R)-2,3,4,5,6-pentahydroxyhexyl]amino]methyl]azetidin-1-yl]ethanone]	≥ 130%	≤ 100 nM
CC(C)OC(=O)N1CCC2(CC1)CC(CCCOc1ccc(CC(=O)N3CC(CNC[C@H](O)[C@@H](O)[C@H](O)[C@H](O)CO)C3)c(F)c1)C2 [Example 117, isopropyl 2-[3-[3-fluoro-4-[2-oxo-2-[3-[[[(2S,3R,4R,5R)-2,3,4,5,6-pentahydroxyhexyl]amino]methyl]azetidin-1-yl]ethyl]phenoxy]propyl]-7-azaspiro[3.5]nonane-7-carboxylate]	100 to 130%	100 to 1000 nM
CC(C)OC(=O)N1CCC2(CC1)CC(CCOc1ccc(CC(=O)N3CC(CNC[C@H](O)[C@@H](O)[C@H](O)[C@H](O)CO)C3)c(F)c1)C2 [Example 118, isopropyl 2-[2-[3-fluoro-4-[2-oxo-2-[3-[[[(2S,3R,4R,5R)-2,3,4,5,6-pentahydroxyhexyl]amino]methyl]azetidin-1-yl]ethyl]phenoxy]ethyl]-7-azaspiro[3.5]nonane-7-carboxylate]	100 to 130%	100 to 1000 nM
O=C(Cc1ccc(OCC2CC(C3CCN(c4ncc(Cl)cn4)CC3)C2)cc1F)N1CC(CNC[C@H](O)[C@@H](O)[C@H](O)[C@H](O)CO)C1 (stereo partly drawn) [Example 120, 2-[4-[ [3-[1-(5-chloropyrimidin-2-yl)-4-piperidyl]cyclobutyl]methoxy]-2-fluoro-phenyl]-1-[3-[[[(2S,3R,4R,5R)-2,3,4,5,6-pentahydroxyhexyl]amino]methyl]azetidin-1-yl]ethanone]	100 to 130%	≤ 100 nM
COCC1(CNC[C@H](O)[C@@H](O)[C@H](O)[C@H](O)CO)CCN(C(=O)Cc2ccc(OCCCC3CCN(c4ncc(Cl)cn4)CC3)cc2F)C1 (stereo partly drawn) [Example 121, 2-[4-[3-[1-(5-chloropyrimidin-2-yl)-4-piperidyl]propoxy]-2-fluoro-phenyl]-1-[3-(methoxymethyl)-3-[[[r(2S,3R,4R,5R)-2,3,4,5,6-pentahydroxyhexyl]amino]methyl]pyrrolidin-1-yl]ethanone]	100 to 130%	≤ 100 nM
COCC1(CNCC(CO)(CO)CO)CCN(C(=O)Cc2ccc(OCCCC3CCN(c4ncc(Cl)cn4)CC3)cc2F)C1 (centres unmarked) [Example 122, 2-[4-[3-[1-(5-chloropyrimidin-2-yl)-4-piperidyl]propoxy]-2-fluoro-phenyl]-1-[3-[[[3-hydroxy-2,2-bis(hydroxymethyl)propyl]amino]methyl]-3-(methoxymethyl)pyrrolidin-1-yl]ethanone]	100 to 130%	≤ 100 nM
O=C(Cc1ccc(OCCC2CC(C3CCN(c4ncc(Cl)cn4)CC3)C2)cc1F)N1CC(CNC[C@H](O)[C@@H](O)[C@H](O)[C@H](O)CO)C1 (stereo partly drawn) [Example 123, 2-[4-[2-[3-[1-(5-chloropyrimidin-2-yl)-4-piperidyl]cyclobutyl]ethoxy]-2-fluoro-phenyl]-1-[3-[[[(2S,3R,4R,5R)-2,3,4,5,6-pentahydroxyhexyl]amino]methyl]azetidin-1-yl]ethanone]	100 to 130%	100 to 1000 nM
O=C(Cc1c(F)cc(OCCC2CC(C3CCN(c4ncc(Cl)cn4)CC3)C2)cc1F)N1CC(CNC[C@H](O)[C@@H](O)[C@H](O)[C@H](O)CO)C1 (stereo partly drawn) [Example 124, 2-[4-[2-[3-[1-(5-chloropyrimidin-2-yl)-4-piperidyl]cyclobutyl]ethoxy]-2,6-difluoro-phenyl]-1-[3-[[[(2S,3R,4R,5R)-2,3,4,5,6-pentahydroxyhexyl]amino]methyl]azetidin-1-yl]ethanone]	100 to 130%	≤ 100 nM
O=C(Cc1ccc(OCCCC2CCN(C(=O)OC3(C(F)(F)F)COC3)CC2)cc1F)N1CC(CNC[C@H](O)[C@@H](O)[C@H](O)[C@H](O)CO)C1 [Example 125, [3-(trifluoromethyl)oxetan-3-yl] 4-[3-[3-fluoro-4-[2-oxo-2-[3-[[[(2S,3R,4R,5R)-2,3,4,5,6-pentahydroxyhexyl]amino]methyl]azetidin-1-yl]ethyl]phenoxy]propyl]piperidine-1-carboxylate]	100 to 130%	100 to 1000 nM
O=C(Cc1c(F)cc(OCCCC2CCN(C(=O)OC3(C(F)(F)F)COC3)CC2)cc1F)N1CC(CNC[C@H](O)[C@@H](O)[C@H](O)[C@H](O)CO)C1 [Example 126, [3-(trifluoromethyl)oxetan-3-yl] 4-[3-[3,5-difluoro-4-[2-oxo-2-[3-[[[(2S,3R,4R,5R)-2,3,4,5,6-pentahydroxyhexyl]amino]methyl]azetidin-1-yl]ethyl]phenoxy]propyl] piperidine-1-carboxylate]	100 to 130%	100 to 1000 nM
O=C(NC[C@H](O)[C@@H](O)[C@H](O)[C@H](O)CO)[C@H]1CCN(C(=O)Cc2ccc(OCCCC3CCN(c4ncc(Cl)cn4)CC3)cc2F)C1 [Example 127, (3S)-1-[2-[4-[3-[1-(5-chloropyrimidin-2-yl)-4-piperidyl]propoxy]-2-fluoro-phenyl]acetyl]-N-[(2S,3R,4R,5R)-2,3,4,5,6-pentahydroxyhexyl]pyrrolidine-3-carboxamide]	≥ 130%	≤ 100 nM
O=C(NC[C@H](O)[C@@H](O)[C@H](O)[C@H](O)CO)[C@H]1CCN(C(=O)Cc2c(F)cc(OCCCC3CCN(c4ncc(Cl)cn4)CC3)cc2F)C1 [Example 128, (3S)-1-[2-[4-[3-[1-(5-chloropyrimidin-2-yl)-4-piperidyl]propoxy]-2,6-difluoro-phenyl]acetyl]-N-[(2S,3R,4R,5R)-2,3,4,5,6-pentahydroxyhexyl]pyrrolidine-3-carboxamide]	≥ 130%	≤ 100 nM
CCOc1cnc(N2CCC(CCCOc3cc(F)c(CC(=O)N4CC[C@H](C(=O)NC[C@H](O)[C@@H](O)[C@H](O)[C@H](O)CO)C4)c(F)c3)CC2)nc1 [Example 130, (3S)-1-[2-[4-[3-[1-(5-ethoxypyrimidin-2-yl)-4-piperidyl]propoxy]-2,6-difluoro-phenyl]acetyl]-N-[(2S,3R,4R,5R)-2,3,4,5,6-pentahydroxyhexyl]pyrrolidine-3-carboxamide]	100 to 130%	≤ 100 nM
COCc1cnc(N2CCC(CCCOc3cc(F)c(CC(=O)N4CC[C@H](C(=O)NC[C@H](O)[C@@H](O)[C@H](O)[C@H](O)CO)C4)c(F)c3)CC2)nc1 [Example 131, (3S)-1-[2-[2,6-difluoro-4-[3-[1-[5-(methoxymethyl)pyrimidin-2-yl]-4-piperidyl]propoxy]phenyl]acetyl]-N-[(2S,3R,4R,5R)-2,3,4,5,6-pentahydroxyhexyl]pyrrolidine-3-carboxamide]	100 to 130%	≤ 100 nM
O=C(Cc1c(F)cc(OCCCC2CCN(c3ncc(Cl)cn3)CC2)cc1F)N1CC[C@@H](CNC[C@H](O)[C@@H](O)[C@H](O)[C@H](O)CO)C1 [Example 132, 2-[4-[3-[1-(5-chloropyrimidin-2-yl)-4-piperidyl]propoxy]-2,6-difluoro-phenyl]-1-[(3S)-3-[[[(2S,3R,4R,5R)-2,3,4,5,6-pentahydroxyhexyl]amino]methyl]pyrrolidin-1-yl]ethanone]	100 to 130%	≤ 100 nM
CCOc1cnc(N2CCC(CCCOc3cc(F)c(CC(=O)N4CC[C@@H](CNC[C@H](O)[C@@H](O)[C@H](O)[C@H](O)CO)C4)c(F)c3)CC2)nc1 [Example 134, 2-[4-[3-[1-(5-ethoxypyrimidin-2-yl)-4-piperidyl]propoxy]-2,6-difluoro-phenyl]-1-[(3S)-3-[[[(2S,3R,4R,5R)-2,3,4,5,6-pentahydroxyhexyl]amino]methyl]pyrrolidin-1-yl]ethanone]	100 to 130%	≤ 100 nM
COCc1cnc(N2CCC(CCCOc3cc(F)c(CC(=O)N4CC[C@@H](CNC[C@H](O)[C@@H](O)[C@H](O)[C@H](O)CO)C4)c(F)c3)CC2)nc1 [Example 135, 2-[2,6-difluoro-4-[3-[1-[5-(methoxymethyl)pyrimidin-2-yl]-4-piperidyl]propoxy]phenyl]-1-[(3S)-3-[[[(2S,3R,4R,5R)-2,3,4,5,6-pentahydroxyhexyl]amino]methyl]pyrrolidin-1-yl]ethanone]	100 to 130%	≤ 100 nM
COCC1(C(=O)NC[C@H](O)[C@@H](O)[C@H](O)[C@H](O)CO)CCN(C(=O)Cc2ccc(OCCCC3CCN(c4ncc(Cl)cn4)CC3)cc2F)C1 (stereo partly drawn) [Example 136, 1-[2-[4-[3-[1-(5-chloropyrimidin-2-yl)-4-piperidyl]propoxy]-2-fluoro-phenyl]acetyl]-3-(methoxymethyl)-N-[(2S,3R,4R,5R)-2,3,4,5,6-pentahydroxyhexyl]pyrrolidine-3-carboxamide]	100 to 130%	≤ 100 nM
